Measurements from patent publication US20240374606A1, “SUBSTITUTED PYRAZINE-2-CARBOXAMIDES AS HPK1 INHIBITORS FOR THE TREATMENT OF CANCER” (ASTRAZENECA AB, priority 2021, published 2024).
Counter-ions that a name gives are not always drawn.

Columns and labels:
Assay type in all cases: cell-based
pSLP76 [1] = assay: Flow pSLP76
human CD3+ T cells = assay: T cell assay (IL2 in supernatant, anti-CD3/anti-CD28 stimulation); conditions: for EC50: T-cell, 4 hours anti-CD3/anti-CD28, read-out: IL-2 EC50
Experimental: Cryo-preserved human CD3+ T cells are recovered in warm T cell media overnight. […] T cells are then left in a humidified incubator at 37° C. for 1 hour. […] Anti-CD28 antibody in T cell media is also added to the cells by Bravo liquid handler at 5 ug/mL or 1 μg/mL in a donor dependent manner. T cells are then incubated in a humidified incubator at 37° C. for 4 hours. […] IL2 is detected using a IL2 MultiCyt® QBeads® kit on an iQue Screener flow cytometer (Sartorius). Briefly, capture beads are diluted by 50× in the supplied capture bead diluent. […] Using a Bravo liquid handler, 10 ul cell culture supernatant is transferred to the v-bottom plate with diluted capture beads. The plate is then sealed in foil and incubate at room temperature on a plate shaker set to 900 rpm for 1 hour. At the end of incubation, 10 μL per well of the supplied detection reagent is added to the wells using a ThermoFisher multichannel pipette. The plate is then sealed in foil and incubate again at room temperature on a plate shaker set to 900 rpm for 2 hours before detection by iQue Screener. iQue Screener flow cytometer uses pre-configured analysis template supplied with the IL2 MultiCyt® QBeads® kit to detect IL2 in each sample wells.

pSLP76 [2] = assay: WB pSLP76

Compound | EC50 (pSLP76 [1]) | EC50 (human CD3+ T cells) | EC50 (pSLP76 [2]) | Max IL-2 conc (human CD3+ T cells)
CNc1nc(Nc2ccc(CN3CC4(COC4)C3)cc2Cl)c(C(N)=O)nc1-c1cncc2c1ncn2C [Example 148, 3-[2-Chloro-4-(2-oxa-6-azaspiro[3.3]heptan-6-ylmethyl)anilino]-5-(methylamino)-6-(3-methylimidazo[4,5-c]pyridin-7-yl)pyrazine-2-carboxamide formate salt] | 1080 nM | 325 nM | – | 3.33 µM
CNc1nc(Nc2cn(C(C)(C)C#N)nc2C)c(C(N)=O)nc1-c1cncc2c1ncn2C [Example 211, 3-[[1-(1-Cyano-1-methyl-ethyl)-3-methyl-pyrazol-4-yl]amino]-5-(methylamino)-6-(3-methylimidazo[4,5-c]pyridin-7-yl)pyrazine-2-carboxamide] | – | 276 nM | 340 nM | 3.33 µM
Cc1nn(CC(F)(F)F)cc1Nc1nc(C2CC2)c(-c2cncc3c2ncn3C)nc1C(N)=O [Example 213, 5-Cyclopropyl-6-(3-methylimidazo[4,5-c]pyridin-7-yl)-3-[[3-methyl-1-(2,2,2-trifluoroethyl)pyrazol-4-yl]amino]pyrazine-2-carboxamide] | 50 nM | 53 nM | – | –

Continued, in another order:

EC50 (pSLP76 [1]) | EC50 (human CD3+ T cells) | EC50 (pSLP76 [2]) | Compound | Max IL-2 conc (human CD3+ T cells)
440 nM | 91 nM | 320 nM | CNc1nc(Nc2cn(C3CCN(C)CC3)nc2C)c(C(N)=O)nc1-c1cccc2c1ncn2C [Example 206, 5-(Methylamino)-6-(1-methylbenzimidazol-4-yl)-3-[[3-methyl-1-(1-methyl-4-piperidyl)pyrazol-4-yl]amino]pyrazine-2-carboxamide formate salt] | 1.11 µM
– | 120 nM | – | Cc1nn(C2COC2)cc1Nc1nc(C2CC2)c(-c2cncc3c2ncn3C)nc1C(N)=O [Example 224, 5-Cyclopropyl-6-(3-methylimidazo[4,5-c]pyridin-7-yl)-3-[[3-methyl-1-(oxetan-3-yl)pyrazol-4-yl]amino]pyrazine-2-carboxamide] | 3.33 µM
65 nM | 23 nM | – | CNc1nc(Nc2ccc(CN3C[C@H]4C[C@@H]3CO4)cc2F)c(C(N)=O)nc1-c1cncc2c1ncn2C [Example 146, 3-[2-Fluoro-4-[[(1R,4R)-2-oxa-5-azabicyclo[2.2.1]heptan-5-yl]methyl]anilino]-5-(methylamino)-6-(3-methylimidazo[4,5-c]pyridin-7-yl)pyrazine-2-carboxamide] | 0.37 µM
